Common to all, as to format: cell-based
In assay [1] the test system is ISG gene expression induced by MSA-2 in human THP1-Blue-ISG cells. Description: Inhibition of MSA-2-induced ISG gene expression in human THP1-Blue-ISG cells (Quanti-Blue, OD650). Particulars: STING agonist MSA-2 10 µM, incubated for 24 hours. Here is the method: (§1) 10 µL of compound diluted with PBS/physiological saline was added to each well of a 96 well cell culture plate. The STING agonist was MSA-2, which was added to the counted cell suspension at a final concentration of 10 µM. For the control group without compounds, 10 µL of PBS/physiological saline containing 2% DMSO was added. 3 replicate wells were set in each group. THP1-Blue-ISG cells were counted and adjusted to a cell concentration of 4× 10^5/mL, and 190 µL of cells containing STING agonist were added to each well for incubation. Therefore, the final volume of each test well was 200 µL, the content of DMSO was 0.1%, and the final concentration of the compound tested was 10/3.3/1.1/0.4/0.13/0.04/0.013/0.004 µM, incubated for 24 hours. In addition, 190 µL of cells without STING agonist and 10 µL of physiological saline containing 2% DMSO were added to the blank group. 3 replicate wells were set in each group.
After 24 hours, 20 µL of culture medium was taken from each well and transferred to a new 96 well plate. 180 µL of chromogenic solution Quanti-Blue was added. The plate was placed in a 37 °C incubator. After 2 hours, the OD650 values were measured.
Result analysis: Inhibition rate (%) = (Con(OD650)−Treated(OD650))/Con(OD650) × 100% [formula]
(§2) The IC50 calculation of inhibitors was implemented using the Graphpad Prism 8 software's calculation method log (inhibitor) vs. response - Variable slope (four parameters), with a constrain interval of 0-100.

In assay [2] the test system is DMXAA induced ISG gene expression in mouse RAW-Lucia cells. Description: Inhibition of DMXAA-induced ISG gene expression in mouse RAW-Lucia cells (QUANTI-Luc). Particulars: STING agonist DMXAA 50 µM, incubated for 24 hours. Here is the method:
10 µL of compound diluted with PBS/physiological saline was added to each well of a 96 well cell culture plate. The STING agonist was DMXAA, which was added to the counted cell suspension at a final concentration of 50 µM. For the control group without compounds, 10 µL of PBS/physiological saline containing 2% DMSO was added. 3 replicate wells were set in each group. RAW-Lucia cells were counted and adjusted to a cell concentration of 4×10^5/mL, and […] of cells were added to each well for incubation. Therefore, the final volume of each test well was 200 µL, the content of DMSO was 0.1%, and the final concentration of the compound tested was 10/3.3/1.1/0.4/0.13/0.04/0.013/0.004 µM. The final concentration of STING agonist DMXAA was 50 µM. The mixture was incubated for 24 hours. In addition, 200 µL of culture medium was added to the blank group. 3 replicate wells were set in each group.
After 24 hours, 20 µL of culture medium was taken from each well and transferred to a new 96 well plate with photopermeable bottom. 50 µL of the luciferase detection reagent QUANTI-Luc™ was added, and the […] was immediately measured (avoid light).
Result analysis: Inhibition rate (%) = (Con(Lum)−Treated(Lum))/Con(Lum) × 100% [formula]
as §2

For assay [3], the system named is ISG gene expression induced by MSA-2 in human THP1-Dual cells. Description: Inhibition of MSA-2-induced ISG gene expression in human THP1-Dual cells (QUANTI-Luc). Particulars: STING agonist MSA-2 10 µM, incubated for 24 hours. As to the method: as §1, with “THP1-Dual” for “THP1-Blue-ISG”, “4×10^5/mL,” for “4× 10^5/mL,”
After 24 hours, 20 µL of culture medium for THP1-Dual cells was taken from each well and transferred to a new 96 well plate with photopermeable bottom. 50 µL of the luciferase detection reagent QUANTI-Luc™ was added, and the […] was immediately measured (avoid light). Result analysis:Inhibition rate (%) = (Con(Lum)−Treated(Lum))/Con(Lum) × 100% [formula]
as §2

Consider 25 molecules from patent EP4748844A1, “AZETIDINE COMPOUND AND MEDICAL USE THEREOF” (SHANGHAI INSTITUTE OF MATERIA MEDICA, CHINESE ACADEMY OF …, priority 2023, dated 2025).

The IC50 is the concentration at which inhibition is half-maximal. The molecule `CC1(C)C(=O)N(CC2CN(c3ccccc3)C2)c2cc(NC(=O)Nc3c[nH]c4ccccc34)ccc21` [Example I-12, 1-(3,3-dimethyl-2-oxo-1-((1-phenylazetidin-3-yl)methyl)indolin-6-yl)-3-(1H-indol-3-yl)urea] gave an IC50 in assay [1] of 375 nM. The same measure, in the same setting: next, `O=C(Nc1c[nH]c2ccccc12)c1ccc2c(c1)SCC(=O)N2Cc1ccc2occc2c1` [Example I-65, 4-(benzofuran-5-ylmethyl)-N-(1H-indol-3-yl)-3-oxo-3,4-dihydro-2H-benzo[b][1,4]thiazin-7-carboxamide]: 57 nM. In assay [1], `O=C(Nc1c[nH]c2ccccc12)c1ccc2c(c1)N(CC1CN(c3cc(F)cc(C(F)(F)F)c3)C1)C(=O)CS2` [Example I-9, 4-((1-(3-fluoro-5-trifluoromethylphenyl)azetidin-3-yl)methyl)-N-(1H-indol-3-yl)-3-oxo-3,4-dihydro-2H-benzo[b][1,4]thiazin-6-carboxamide] yielded an IC50 of 249 nM. On to `CC1(C)C(=O)N(Cc2cc(F)cc(C(F)(F)F)c2)c2cc(C(=O)Nc3c[nH]c4ccc(F)cc34)ccc21` [Example I-110], for which the IC50 amounted to 14.3 nM in assay [2] and 36.8 nM in assay [3].

Take `CC1(C)C(=O)N(Cc2cccc3ccoc23)c2cc(C(=O)Nc3c[nH]c4ccc(Cl)cc34)ccc21` [Example I-128, 1-(benzofuran-7-ylmethyl)-N-(5-chloro-1H-indol-3-yl)-3,3-dimethyl-2-oxoindolin-6-carboxamide]: the IC50 in assay [2] and in assay [3] was 39.4 nM each time.

With `CC1(C)C(=O)N(Cc2cccc3ccoc23)c2cc(C(=O)Nc3c[nH]c4ccccc34)ccc21` [Example I-97, 1-(benzofuran-7-ylmethyl)-N-(1H-indol-3-yl)-3,3-dimethyl-2-oxoindolin-6-carboxamide], the IC50 in assay [2] was 17.1 nM; in assay [3] it was 3.3 nM. `O=C(Nc1c[nH]c2ccccc12)c1ccc2c(c1)SCC(=O)N2Cc1ccc2c(c1)OCO2` [Example I-66, 4-(benzo[d][1,3]dioxolan-5-ylmethyl)-N-(1H-indol-3-yl)-3-oxo-3,4-dihydro-2H-benzo[b][1,4]thiazin-7-carboxamide]: the IC50 in assay [1] amounted to 73 nM. For the molecule `O=C(Nc1cc2c(s1)SCC(=O)N2Cc1ccccc1)Nc1c[nH]c2ccccc12` [Example I-7, 1-(1-benzyl-2-oxo-2,3-dihydro-1H-thieno[2,3-b][1,4]thiazin-6-yl)-3-(1H-indol-3-yl)urea], the IC50 in assay [1] was determined as 390 nM. Against the preceding molecule, the IC50 is about 5.3-fold higher. Turning to `CC1(C)C(=C=O)N(CCc2ccccc2)c2cc(C(=O)Nc3c[nH]c4ccc(F)cc34)ccc21` [Example I-107, N-(5-fluoro-1H-indol-3-yl)-3,3-dimethyl-2-carbonyl-1-phenethylindolin-6-carboxamide], the IC50 was found to be 2.72 nM in assay [2] and 147 nM in assay [3]. For the molecule `O=C(Nc1c[nH]c2ccccc12)c1ccc2c(c1)SCC(=O)N2Cc1ccoc1` [Example I-64, 4-(furan-3-ylmethyl)-N-(1H-indol-3-yl)-3-oxo-3,4-dihydro-2H-benzo[b][1,4]thiazin-7-carboxamide], in assay [1], the IC50 was found to be 139 nM. For `O=C(Nc1c[nH]c2ccccc12)c1cc2c(s1)SCC(=O)N2Cc1ccc2occc2c1` [Example I-113, 1-(benzofuran-5-ylmethyl)-N-(1H-indol-3-yl)-2-oxo-2,3-dihydro-1H-thieno[2,3-b][1,4]thiazin-6-carboxamide], the IC50 in assay [2] turned out to be 27.9 nM; in assay [3], 39.4 nM.

In the case of `O=C(Nc1c[nH]c2ccccc12)c1ccc2c(c1)N(Cc1ccco1)C(=O)CS2` [Example I-60, 4-(furan-2-ylmethyl)-N-(1H-indol-3-yl)-3-oxo-3,4-dihydro-2H-benzo[b][1,4]thiazin-6-carboxamide], the IC50 in assay [1] is 42 nM. Turning to `O=C(Nc1c[nH]c2ccccc12)c1cc2c(s1)SCC(=O)N2Cc1cccc2ccoc12` [Example I-120, 1-(benzofuran-7-ylmethyl)-N-(1H-indol-3-yl)-2-oxo-2,3-dihydro-1H-thieno[2,3-b][1,4]thiazin-6-carboxamide], the IC50 in assay [2] stood at 8.7 nM; in assay [3], 96.5 nM. Turning to `CC1(C)C(=O)N(Cc2csc(C(F)(F)F)c2)c2cc(C(=O)Nc3c[nH]c4ccccc34)ccc21` [Example I-102], the IC50 turned out to be 10.6 nM in assay [2] and 20.8 nM in assay [3]. The like results for `CCc1ccc(NC(=O)Nc2c[nH]c3ccccc23)cc1` [Example H151, H-151, reference compound] were, in that order, 271 nM and 635 nM. The matching figures for `CC1(C)C(=O)N(Cc2cccc3ccoc23)c2cc(C(=O)Nc3c[nH]c4ccc(F)cc34)ccc21` [Example I-126, 1-(benzofuran-7-ylmethyl)-N-(5-fluoro-1H-indol-3-yl)-3,3-dimethyl-2-oxoindolin-6-carboxamide]: 58.5 nM and 58.5 nM. For `CCC1(C)C(=O)N(Cc2ccccc2)c2cc(C(=O)Nc3c[nH]c4ccccc34)ccc21` (centres unmarked) [Example I-101], the values for the IC50 in assay [2] and in assay [3] were 38.5 nM and 16.4 nM, respectively. The like results for `CC1(C)C(=O)N(Cc2ccccc2)c2cc(C(=O)Nc3c[nH]c4ccc(F)cc34)ccc21` [Example I-105] were, in that order, 3.38 nM and 70.4 nM. Turning to `O=C(Nc1ccc2c(c1)N(CC1CN(c3ccc4c(c3)OCO4)C1)C(=O)CS2)Nc1c[nH]c2ccccc12` [Example I-13, 1-(4-((1-(benzo[d][1,3]dioxolan-5-yl)azetidin-3-yl)methyl)-3-oxo-3,4-dihydro-2H-benzo[b][1,4]thiazin-6-yl)-3-(1H-indol-3-yl)urea], the IC50 in assay [1] came to 391 nM. On to `CC1(C)C(=O)N(Cc2ccsc2)c2cc(C(=O)Nc3c[nH]c4ccccc34)sc21` [Example I-85, N-(1H-indol-3-yl)-6,6-dimethyl-5-oxo-4-(thien-3-ylmethyl)-5,6-dihydro-4H-thieno[3,2-b]pyrrol-2-carboxamide], for which the IC50 in assay [2] was 19.4 nM; in assay [3], 16.5 nM. With `CC1(C)C(=O)N(CCc2ccsc2)c2cc(C(=O)Nc3c[nH]c4ccccc34)ccc21` [Example I-108, N-(1H-indol-3-yl)-3,3-dimethyl-2-carbonyl-1-(2-(thien-3-yl)ethyl) indolin-6-carboxamide], the IC50 in assay [2] stood at 1.74 nM; in assay [3] it was 71.4 nM. The like results for `O=C(Nc1c[nH]c2ccc(F)cc12)c1cc2c(s1)SCC(=O)N2Cc1ccco1` [Example I-121, N-(5-fluoro-1H-indol-3-yl)-1-(furan-2-ylmethyl)-2-oxo-2,3-dihydro-1H-thieno[2,3-b][1,4]thiazin-6-carboxamide] were, in that order, 31.7 nM and 268 nM. `CC(c1ccccc1)N1C(=O)C(C)(C)c2ccc(C(=O)Nc3c[nH]c4ccccc34)cc21` (centres unmarked) [Example I-100, N-(1H-indol-3-yl)-3,3-dimethyl-2-oxo-1-(1-phenethyl)indolin-6-carboxamide]: the IC50 was 15.1 nM in assay [2] and 59.6 nM in assay [3]. With `CC1(C)C(=O)N(Cc2cc(F)cc(C(F)(F)F)c2)c2cc(C(=O)Nc3c[nH]c4ccccc34)ccc21` [Example I-104], the IC50 in assay [2] amounted to 8.69 nM; in assay [3] it was 33.1 nM.

The molecule `O=C(Nc1c[nH]c2ccccc12)c1ccc2c(c1)N(Cc1cccs1)C(=O)CS2` [Example I-59, N-(1H-indol-3-yl)-3-oxo-4-(thien-2-ylmethyl)-3,4-dihydro-2H-benzo[b][1,4]thiazin-6-carboxamide] displayed an IC50 in assay [1] of 25 nM.
